Data: patent publication US6974816B2, “Combination for the treatment of endothelial damage” (Licentia Ltd., priority 2001, dated 2005)
Like-named read-outs stand apart in the source and are kept apart here.

What was measured:
[1] = system: left anterior descending coronary artery injured by overdilatation and denudation; conditions: after PTCA, versus controls without RPR101511A; cited from earlier work
[2] = system: CD31-positive cells (endothelium) of the transfected vessel segment; assay: Luminal endothelial cell coverage (CD31-positive cells) in transverse vessel sections; assay type: in vivo, New Zealand White rabbits
Method: Animals from the 8 groups are also analyzed with regard to luminal endothelial cell coverage from transverse vessel sections. This variable is determined by analysis of the percentage of the luminal surface that is covered by CD31-positive cells (CD31 is an endothelium-specific antibody from DAKO).
To investigate the mechanism underlying the observed beneficial effect of the combination therapy, the extent of endothelialization and the number of smooth muscle cells at the transfected vessel segment are analyzed (see Table 1). At the three-week time point, no difference in endothelial cell coverage is observed between the groups, although a trend towards an increased endothelial cell coverage in the combination group is seen (P=0.088). However, at the six-week time point, both groups that have received VEGF-C gene transfer display an increase in endotheilialization as compared to the control group. […] As shown in Table 4 (see below), the cell number is reduced by 52% (P<0.05) in the combination group as compared to control animal.
Three hours before euthanasia, animals receive an i.v. injection of 50 mg 5-bromo-2′-deoxyuridine (BrdU; Zymed Laboratories, San Francisco, Calif., USA) dissolved in 40% ethanol. After euthanasia, the transferred vessel segment is removed, flushed gently with saline, and divided into 4 parts of equal length. […]

[3] = for Plasma STI571 concentration, day 3 peak: 10 mg/kg/d oral in two daily doses; for Plasma STI571 concentration, day 3 peak / Plasma STI571 concentration, day 10 peak / Plasma STI571 concentration, day 21 peak: 2 h after drug delivery; for Plasma STI571 concentration, day 42: 3 weeks after last dose; for Plasma STI571 concentration, day 3 nadir / Plasma STI571 concentration, day 10 nadir / Plasma STI571 concentration, day 21 nadir: immediately before next administration
Method: The drug, or control (=sterile water) is administered with an oro-gastric sond on trained, unsedated animals 1 h before the gene transfer and is repeated every 12 h thereafter for the following three weeks.
Blood sampling, […] with catheterizations or euthanasia, is performed under slight Fluanisone/Fentanyl sedation. […] The specimen is stored in heparinized tubes shielded from light and plasma is isolated by centrifugation within 2 h and stored at −70° C. STI concentration is determined by high-performance liquid chromatography
For HPLC, plasma proteins are precipitated by the addition of an equal volume of acetonitrile. After 20 to 30 min at room temperature, the precipitated proteins are removed by centrifugation (10,000 g, 5 min) and the supernatants are analyzed by reversed-phase HPLC.
HPLC is performed on Merck-Hitachi LaChrom® equipment. 100 μl of the supernatants are injected onto a Nucleosil® 100-5 C18 column (C-18 modified silica Gel, Macherey & Nagel) protected by a 20 mm guard column of the same material. The sample is eluted with a gradient of acetonitrile in water at a flow rate of 1 ml/min; after 5 min at 10% v/v acetonitrile, the concentration of acetonitrile is increased to 75% v/v over a period of 15 min. The column is prepared for the next sample by washing for 5 min with 75% v/v acetonitrile, returning to 10% acetonitrile over 5 min and 5 min reequilibration. The mobile phase contains 0.05% v/v trifluoroacetic acid. The eluent is monitored using UV absorbance at a wavelength of 265 nm. […] The concentration of the compound is determined by the external standard method using peak heights. […] The calibration standards are processed as above.

[4] = system: intimal and medial smooth muscle cells; assay: BrdU labelling of dividing smooth muscle cells; assay type: in vivo, New Zealand White rabbits; conditions: 6-week endpoint; mean ± SEM
Method: (§1) Three hours before euthanasia, animals receive an i.v. injection of 50 mg 5-bromo-2′-deoxyuridine (BrdU; Zymed Laboratories, San Francisco, Calif., USA) dissolved in 40% ethanol. After euthanasia, the transferred vessel segment is removed, flushed gently with saline, and divided into 4 parts of equal length. The proximal part is snap-frozen in liquid nitrogen and stored at −70° C. The next part is immersion-fixed in 4% paraformaldehyde/15% sucrose (pH 7.4) for 4 h, rinsed in 15% sucrose (pH 7.4) and embedded in paraffin. The 2nd most distal part is fixed in 70% ethanol overnight and embedded in paraffin. The distal part is fixed in […]/PBS (pH 7.4) for 10 minutes, rinsed in PBS, embedded in OCT compound (Miles) and stored at −70° C. The distal segments from 3 week end-point animals are stained for β-galactosidase activity in X-Gal staining solution at +37° C. for 16 h, followed by fixation similar to that for the second segment. Paraffin sections are used for the detection of endothelium (CD31, DAKO, 1:50), smooth muscle cells (HHF, DAKO, 1:50), macrophages (RAM-11, DAKO, 1:50), and BrdU positive cells (Bu20a, DAKO, 1:50). Controls for immunostainings include incubations with class- and species-matched immunoglobulins and omission of primary antibodies. Morphometry is performed with Leica Q5001lW software with a stereomicroscope connected to a digital camera (Leica).

[5] = system: intimal and medial smooth muscle cells; assay: Intimal and medial smooth muscle cell number; assay type: in vivo, New Zealand White rabbits; conditions: 6-week endpoint; mean ± SEM
Method: as §1

[6] = rabbit, in vivo
Text: (§2) The cohort groups are also characterized with regard to animal weights, weight changes, extent of balloon injury (IEL damage), blood lipid profiles and basic hematologic parameters.

[7] = rabbit, in vivo; remark: listed apart in the source
Text: as §2
(§3) Blood samples are drawn for complete blood count at the time of euthanasia from randomly selected animals (n=3/group) in the 3-week endpoint cohort.

arterial intima = conditions: after re-injury of the arterial intima; cited from earlier work
[8] = Complete blood count (hematological parameters); conditions: 3-week endpoint; mean ± SEM
Text: as §2, §3

For COc1cc2ncc(-c3ccsc3)nc2cc1OC.Cl [RPR101511A, 6,7-di-methoxy-2-thiophen-3-yl-quinoxaline hydrochloride], the total intima/media ratio [1] is listed as “significant decrease”.
In the case of Cc1ccc(NC(=O)c2ccc(CN3CCN(C)CC3)cc2)cc1Nc1nccc(-c2cccnc2)n1 [STI571, N-{5-[4-(4-methyl-piperazino-methyl)-benzoylamido]-2-methylphenyl}-4-(3-pyridyl)-2-pyrimidine-amine], the “CD31 positive cell coverage (% of luminal circumference), mean” value ([2]; 3-week endpoint) is reported as 33.7 % of luminal circumference, the “CD31 positive cell coverage (% of luminal circumference), mean” value ([2]; 6-week endpoint) is reported as 60.2 % of luminal circumference and the “Plasma STI571 concentration, day 3 peak” value ([3]; LacZ transfected animals) is reported as 10.27 ± 1.28 µM. For the same compound, the “Plasma STI571 concentration, day 42” value ([3]; LacZ transfected animals) was 0.04 ± 0.01 µM, the “Plasma STI571 concentration, day 10 peak” value ([3]; LacZ transfected animals) was 16.63 ± 1.99 µM and the “Plasma STI571 concentration, day 21 peak” value ([3]; LacZ transfected animals) was 13.18 ± 1.65 µM. For the same compound, the “Plasma STI571 concentration, day 3 nadir” value ([3]; LacZ transfected animals) was 3.57 ± 0.74 µM, the “Plasma STI571 concentration, day 10 nadir” value ([3]; LacZ transfected animals) was 5.16 ± 1.89 µM and the “Plasma STI571 concentration, day 21 nadir” value ([3]; LacZ transfected animals) was 3.86 ± 1.02 µM. For the same compound, the “Plasma STI571 concentration, day 3 peak” value ([3]; VEGF-C transfected animals) was 11.08 ± 1.10 µM, the “Plasma STI571 concentration, day 42” value ([3]; VEGF-C transfected animals) was 0.05 ± 0.01 µM and the “Plasma STI571 concentration, day 10 peak” value ([3]; VEGF-C transfected animals) was 14.26 ± 1.26 µM. The “Plasma STI571 concentration, day 21 peak” value ([3]; VEGF-C transfected animals) was 13.58 ± 1.95 µM, the “Plasma STI571 concentration, day 3 nadir” value ([3]; VEGF-C transfected animals) was 3.11 ± 1.13 µM and the “Plasma STI571 concentration, day 10 nadir” value ([3]; VEGF-C transfected animals) was 2.41 ± 0.43 µM. For the same compound, the “Plasma STI571 concentration, day 21 nadir” value ([3]; VEGF-C transfected animals) was 2.95 ± 0.90 µM, the “BrdU positive SMC (%), intima” value [4] was 0.57 ± 0.13% and the “BrdU positive SMC (%), media” value [4] was 0.39 ± 0.08%. For the same compound, the “Number of SMC, intima” value [5] was 1471 ± 287, the “Number of SMC, media” value [5] was 2403 ± 381 and the “weight” value [6] was 2462 ± 90 g. The “Bands (%)” value [7] was 0 ± 0%, the “Hct (%)” value [7] was 31 ± 1.2% and the “MCH” value [7] was 21 ± 0.8 pg. The “MCV” value [7] was 64 ± 2.0 fL, the “basophiles (%)” value [7] was 0 ± 0% and the “eosinophiles (%)” value [7] was 3.4 ± 1.4%. For the same compound, the “lymphocytes (%)” value [7] was 67.4 ± 4.1%, the “monocytes (%)” value [7] was 2.4 ± 0.7% and the “neutrophils (%)” value [7] was 26.8 ± 2.7%. For the same compound, the “smooth muscle proliferation and lesion formation” value (arterial intima) was “inhibit smooth muscle proliferation and leasion formation”, the “Hb” value [8] was 103 ± 3.6 g/L and the “RBC count (× 10^12/l)” value [8] was 4.9 ± 0.2 × 10^12/l. For the same compound, the “WBC count (× 10^9/l)” value [8] was 4.6 ± 0.6 × 10^9/l.
